Source: US4339454A, “Alkoxymethyl and benzyloxymethyl phenobarbital therapeutic compositions” (priority 1978, dated 1982)

What was measured:
[1] = literature / prior knowledge; cited from earlier work
maximal electroshock = test: Anticonvulsant effectiveness against maximal electroshock, mice; assay type: in vivo, mice (Charles River strain); details: for Time of peak activity: mice, oral, maximal electroshock
Experimental: (§1) All tests, with the exceptions noted, were conducted on adult albino male mice (Charles River strain); the dosage consisted of the active agent suspended in 10% aqueous acacia and was administered orally unless otherwise indicated.
Anticonvulsant effectiveness of each agent against maximal electroshock was determined at the time of peak effect. The time of peak anticonvulsant activity was determined by administering dosages of various sizes to a group of animals and administering a maximal electroshock to the animals at intervals thereafter by supplying 60 ma. current through a corneal electrode for 0.2 second. […] The time of peak effect thus determined was used for all subsequent tests of anticonvulsant activity on the same active agent.

Metrazol = test: Anticonvulsant effectiveness against convulsive dose of Metrazol, mice; assay type: in vivo, mice (Charles River strain); details: oral
Experimental: as §1
Anticonvulsant effectiveness was determined against a convulsive dose of Metrazol (106.25 mg/kg) injected subcutaneously; the criterior for effectiveness was failure to show clonic convulsive seizures. Anticonvulsant activity was determined against a lethal dose of strychnine sulfate (1.5 mg/kg) injected subcutaneously; the criterion was failure to die, even though seizures appeared.

central nervous system = test: Hypnotic activity: loss of the righting reflex (onset of sleep); assay type: in vivo, mice (Charles River strain); details: any dosage less than a lethal dose for the compounds of the invention
Experimental: as §1

[2] = prior knowledge; cited from earlier work

CCC1(c2ccccc2)C(=O)N(COC)C(=O)N(COC)C1=O [Example 1, 1,3-dimethoxymethyl-5-ethyl-5-phenyl barbituric acid]
Hypnotic activity, known or reported [1]: without effect
Duration of anticonvulsant effect against maximal electroshock (in words) (maximal electroshock; 0.1 millimole/kg): protection continued at about the same level for more than eight hours
Onset of protection against maximal electroshock (in words) (maximal electroshock; 0.1 millimole/kg): only after two hours
Time of peak activity (maximal electroshock): 2 h
Change in ED50 to protect against maximal electroshock on repeated daily dosage (maximal electroshock; repeated daily dosage of same animals for four days): no significant change

COCN1C(=O)NC(c2ccccc2)(c2ccccc2)C1=O [Example 2, 3-methoxymethyl-5,5-diphenylhydantoin]
Onset of anticonvulsant activity (maximal electroshock) after ingestion (maximal electroshock; after ingestion): less than 0.5 hour

CCCCCCCCCCCCOCN1C(=O)N(COCCCCCCCCCCCC)C(=O)C(CC)(c2ccccc2)C1=O [Example 8, 1,3-dilauryloxymethyl-5-ethyl-5-phenyl barbituric acid]
Time of peak activity (maximal electroshock): 2 h

CCC1(CC)C(=O)N(COC)C(=O)N(COC)C1=O [Example 9, 1,3-dimethoxymethyl-5,5-diethylbarbituric acid]
Time of peak activity (Metrazol): 1 h

CCCCCCCCCCCCOCN1C(=O)N(COCCCCCCCCCCCC)C(=O)C(CC)(CC)C1=O [Example 10, 1,3-di-n-dodecyloxymethyl-5,5-diethyl barbituric acid]
Time of peak activity (in words) (Metrazol): about one hour

CCC1(c2ccccc2)C(=O)NC(=O)NC1=O [Phenobarbital, phenobarbital]
Hypnotic activity, known or reported [1]: exhibits hypnotic activity
Hypnotic activity (loss of the righting reflex) (central nervous system): did exhibit hypnotic activity

O=C1NC(=O)C(c2ccccc2)(c2ccccc2)N1 [diphenylhydantoin]
Hypnotic activity, known or reported [1]: not hypnotic
Undesirable side effects [2]: hypertrophic gingivitis, megaloblastic anemia, toxic psychoses, and hirsutism

CCC1(c2ccccc2)C(=O)NC(=O)NC1=O [phenobarbital sodium, reference compound]
Duration of anticonvulsant effect against maximal electroshock (in words) (maximal electroshock; 0.1 millimole/kg): protection began to decrease after four hours and was nearly gone by eight hours
Onset of protection against maximal electroshock (maximal electroshock; 0.1 millimole/kg): less than 0.5 hour
